The target of experiment [1] is T1, Tyrosine-protein kinase receptor TYRO3 (Homo sapiens) (UniProt Q06418).
T1 sequence (whole entry): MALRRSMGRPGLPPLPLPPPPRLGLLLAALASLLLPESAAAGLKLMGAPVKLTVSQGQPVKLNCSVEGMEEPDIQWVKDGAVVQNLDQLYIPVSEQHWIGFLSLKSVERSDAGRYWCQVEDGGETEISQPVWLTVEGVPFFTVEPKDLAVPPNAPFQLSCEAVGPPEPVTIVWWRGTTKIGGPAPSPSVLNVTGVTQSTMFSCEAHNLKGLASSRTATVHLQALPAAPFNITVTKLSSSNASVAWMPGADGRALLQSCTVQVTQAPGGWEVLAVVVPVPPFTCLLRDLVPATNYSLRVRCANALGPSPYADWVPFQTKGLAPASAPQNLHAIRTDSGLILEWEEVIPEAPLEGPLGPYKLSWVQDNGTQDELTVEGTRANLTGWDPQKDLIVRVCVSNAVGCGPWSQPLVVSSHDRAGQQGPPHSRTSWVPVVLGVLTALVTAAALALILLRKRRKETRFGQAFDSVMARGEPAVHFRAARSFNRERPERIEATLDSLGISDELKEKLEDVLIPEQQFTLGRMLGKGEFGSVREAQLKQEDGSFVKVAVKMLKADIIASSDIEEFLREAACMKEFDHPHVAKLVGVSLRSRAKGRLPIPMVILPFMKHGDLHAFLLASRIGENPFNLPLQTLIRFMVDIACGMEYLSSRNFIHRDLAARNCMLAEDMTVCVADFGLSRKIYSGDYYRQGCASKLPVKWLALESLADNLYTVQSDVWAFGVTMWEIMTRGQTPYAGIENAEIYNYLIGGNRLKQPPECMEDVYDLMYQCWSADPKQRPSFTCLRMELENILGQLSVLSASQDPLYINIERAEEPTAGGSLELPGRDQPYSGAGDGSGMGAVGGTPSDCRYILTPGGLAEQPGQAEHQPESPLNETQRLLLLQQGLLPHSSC
Nature of the experiment: Selectivity interaction (KinomeScan (DiscoverX)) EUB0001079a TYRO3. The settings on record: at 1 µM.

The target in experiment [2] is Serine/threonine-protein kinase NIM1 (Homo sapiens, UniProt Q8IY84). Nature of the experiment: Selectivity interaction (KinomeScan (DiscoverX)) EUB0000655a NIM1K. Conditions: at 10 µM.
Experiment [3] deals with Insulin-like growth factor 1 receptor (Homo sapiens, UniProt P08069). The experiment can be described thus: Selectivity interaction (KinomeScan (DiscoverX)) EUB0000695a IGF1R. The settings on record: at 100 nM.
Experiment [4] concerns the target T2, Megakaryocyte-associated tyrosine-protein kinase (Homo sapiens) (UniProt P42679).
T2 sequence (whole entry): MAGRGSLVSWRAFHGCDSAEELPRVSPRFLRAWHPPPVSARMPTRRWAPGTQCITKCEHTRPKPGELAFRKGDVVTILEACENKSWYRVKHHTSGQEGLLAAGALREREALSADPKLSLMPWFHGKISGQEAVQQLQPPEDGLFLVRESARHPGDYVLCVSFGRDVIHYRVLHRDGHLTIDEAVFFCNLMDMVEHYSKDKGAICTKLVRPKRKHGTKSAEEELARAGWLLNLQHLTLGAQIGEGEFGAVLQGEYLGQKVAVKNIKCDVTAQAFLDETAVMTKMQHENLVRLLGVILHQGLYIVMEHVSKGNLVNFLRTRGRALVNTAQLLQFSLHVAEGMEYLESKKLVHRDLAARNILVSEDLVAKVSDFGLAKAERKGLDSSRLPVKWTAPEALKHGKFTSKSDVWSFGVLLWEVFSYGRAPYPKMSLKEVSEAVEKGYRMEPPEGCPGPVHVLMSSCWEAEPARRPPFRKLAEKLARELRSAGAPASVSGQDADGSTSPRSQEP
Nature of the experiment: Selectivity interaction (KinomeScan (DiscoverX)) EUB0000045b MATK.

The target in experiment [5] is T3, Mitogen-activated protein kinase 12 (Homo sapiens) (UniProt P53778).
T3 sequence (whole entry): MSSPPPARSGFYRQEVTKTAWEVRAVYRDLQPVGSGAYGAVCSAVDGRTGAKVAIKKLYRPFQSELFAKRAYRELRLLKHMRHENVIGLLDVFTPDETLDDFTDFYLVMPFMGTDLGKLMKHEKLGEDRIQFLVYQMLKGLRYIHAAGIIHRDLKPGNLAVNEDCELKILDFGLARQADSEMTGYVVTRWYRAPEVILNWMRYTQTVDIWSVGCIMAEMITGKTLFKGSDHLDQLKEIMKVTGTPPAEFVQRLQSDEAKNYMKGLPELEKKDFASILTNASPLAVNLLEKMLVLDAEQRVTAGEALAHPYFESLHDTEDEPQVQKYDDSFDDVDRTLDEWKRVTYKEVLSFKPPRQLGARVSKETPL
Nature of the experiment: Selectivity interaction (KinomeScan (DiscoverX)) EUB0000607a MAPK12. Conditions: at 10 µM.

The target of experiment [6] is T4, Bone morphogenetic protein receptor type-2 (Homo sapiens) (UniProt Q13873).
T4 sequence (whole entry): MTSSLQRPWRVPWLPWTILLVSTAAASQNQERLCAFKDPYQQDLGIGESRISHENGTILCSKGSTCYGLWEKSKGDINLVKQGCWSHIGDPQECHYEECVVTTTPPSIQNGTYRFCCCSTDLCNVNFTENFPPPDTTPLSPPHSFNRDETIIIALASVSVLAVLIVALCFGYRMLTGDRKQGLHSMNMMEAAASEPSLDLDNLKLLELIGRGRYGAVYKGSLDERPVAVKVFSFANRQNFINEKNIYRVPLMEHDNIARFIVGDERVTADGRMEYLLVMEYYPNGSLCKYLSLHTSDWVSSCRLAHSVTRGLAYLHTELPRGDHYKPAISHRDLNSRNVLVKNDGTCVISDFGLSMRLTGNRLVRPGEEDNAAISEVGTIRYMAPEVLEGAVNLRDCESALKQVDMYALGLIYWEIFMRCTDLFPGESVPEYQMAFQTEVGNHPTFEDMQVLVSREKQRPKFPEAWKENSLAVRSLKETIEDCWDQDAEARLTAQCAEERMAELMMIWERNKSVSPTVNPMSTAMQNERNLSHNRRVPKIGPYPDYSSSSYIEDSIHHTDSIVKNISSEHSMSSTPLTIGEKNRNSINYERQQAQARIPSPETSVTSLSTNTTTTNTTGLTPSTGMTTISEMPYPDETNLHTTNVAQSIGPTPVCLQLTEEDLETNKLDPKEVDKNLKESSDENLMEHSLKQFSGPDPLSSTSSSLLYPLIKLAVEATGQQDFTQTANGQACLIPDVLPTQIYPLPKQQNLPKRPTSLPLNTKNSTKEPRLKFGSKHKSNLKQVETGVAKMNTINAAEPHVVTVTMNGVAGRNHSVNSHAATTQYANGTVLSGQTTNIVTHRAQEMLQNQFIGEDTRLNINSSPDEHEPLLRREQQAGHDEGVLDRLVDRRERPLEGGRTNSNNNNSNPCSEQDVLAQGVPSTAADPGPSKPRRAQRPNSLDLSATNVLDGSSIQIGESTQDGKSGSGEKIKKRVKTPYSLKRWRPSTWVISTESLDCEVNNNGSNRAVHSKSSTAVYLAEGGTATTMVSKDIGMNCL
Nature of the experiment: Selectivity interaction (KinomeScan (DiscoverX)) EUB0000229b BMPR2. Conditions: at 10 µM.

The values that follow come from ChEMBL document CHEMBL5465560, “Selectivity Literature for EUbOPEN Chemogenomic Library” (2024).

Chain of Insulin-like growth factor 1 receptor (P08069 31-736 limits assumed): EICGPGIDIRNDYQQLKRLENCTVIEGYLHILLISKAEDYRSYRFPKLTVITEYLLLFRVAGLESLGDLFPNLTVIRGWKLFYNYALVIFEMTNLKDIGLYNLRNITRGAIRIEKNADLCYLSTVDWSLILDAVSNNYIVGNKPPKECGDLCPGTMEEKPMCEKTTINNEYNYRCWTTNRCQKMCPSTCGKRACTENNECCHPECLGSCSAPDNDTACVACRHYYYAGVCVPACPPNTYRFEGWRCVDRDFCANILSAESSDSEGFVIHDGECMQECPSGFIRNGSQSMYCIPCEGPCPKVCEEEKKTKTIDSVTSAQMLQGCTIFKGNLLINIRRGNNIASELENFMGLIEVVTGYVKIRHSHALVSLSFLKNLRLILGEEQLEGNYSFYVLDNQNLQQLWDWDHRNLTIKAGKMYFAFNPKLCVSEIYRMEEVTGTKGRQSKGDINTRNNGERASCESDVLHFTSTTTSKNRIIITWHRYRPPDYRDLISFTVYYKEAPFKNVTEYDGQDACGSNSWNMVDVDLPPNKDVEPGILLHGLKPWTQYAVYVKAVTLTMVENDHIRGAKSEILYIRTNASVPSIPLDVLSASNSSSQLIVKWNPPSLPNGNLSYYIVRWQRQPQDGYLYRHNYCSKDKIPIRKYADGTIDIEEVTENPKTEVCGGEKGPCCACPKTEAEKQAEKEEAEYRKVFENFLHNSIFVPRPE
Chain of Insulin-like growth factor 1 receptor (P08069 741-1367 limits assumed): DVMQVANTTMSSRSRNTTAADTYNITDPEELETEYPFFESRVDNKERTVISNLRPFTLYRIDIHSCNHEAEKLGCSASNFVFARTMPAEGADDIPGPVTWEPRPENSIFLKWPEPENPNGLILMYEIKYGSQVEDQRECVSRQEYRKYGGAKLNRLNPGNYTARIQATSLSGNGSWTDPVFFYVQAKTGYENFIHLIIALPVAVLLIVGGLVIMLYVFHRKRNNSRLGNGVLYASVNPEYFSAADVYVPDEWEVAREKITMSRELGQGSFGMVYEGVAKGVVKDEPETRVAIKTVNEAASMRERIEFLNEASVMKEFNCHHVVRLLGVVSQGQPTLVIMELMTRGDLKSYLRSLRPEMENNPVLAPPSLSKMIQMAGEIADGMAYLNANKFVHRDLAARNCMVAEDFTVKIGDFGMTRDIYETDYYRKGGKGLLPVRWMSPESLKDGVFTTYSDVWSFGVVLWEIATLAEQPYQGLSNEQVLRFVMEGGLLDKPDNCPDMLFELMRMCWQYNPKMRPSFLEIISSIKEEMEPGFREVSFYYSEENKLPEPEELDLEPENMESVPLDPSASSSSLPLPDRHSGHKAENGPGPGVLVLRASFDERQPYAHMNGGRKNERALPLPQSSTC
Chain of Serine/threonine-protein kinase NIM1 (Q8IY84 whole entry): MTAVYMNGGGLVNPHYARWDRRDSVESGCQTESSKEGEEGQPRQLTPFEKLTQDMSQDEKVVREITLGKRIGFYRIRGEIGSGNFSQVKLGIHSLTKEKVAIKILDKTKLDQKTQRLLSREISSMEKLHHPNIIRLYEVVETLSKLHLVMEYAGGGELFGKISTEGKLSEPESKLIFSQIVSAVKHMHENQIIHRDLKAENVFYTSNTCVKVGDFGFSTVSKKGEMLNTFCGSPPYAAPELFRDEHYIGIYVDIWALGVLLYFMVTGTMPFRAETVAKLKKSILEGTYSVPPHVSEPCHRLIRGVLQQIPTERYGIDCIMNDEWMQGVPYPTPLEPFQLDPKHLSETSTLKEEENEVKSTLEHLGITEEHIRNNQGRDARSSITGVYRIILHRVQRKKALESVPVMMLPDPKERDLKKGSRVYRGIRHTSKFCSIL

As for `Nc1cnc(N2CCc3cc(S(=O)(=O)Nc4c(F)cc(Cl)cc4F)cc(N4CCCC4=O)c32)nc1` [TP-020n], the % of control in experiment [1] turned out to be 100%.

Turning to `CN(C)CCOc1ccc(-c2nc(-c3ccncc3)c(-c3ccc4c(c3)CC/C4=N\O)[nH]2)cc1`, the % of control in experiment [2] was 91%. The compound `Cc1cc(F)c(C(=O)Nc2cccc(-c3nncn3C(C)C)n2)cc1-n1cnc(C2CC2)c1` came in with a % of control in experiment [3] of 100%.

In the case of `C=CC(=O)Nc1cc(-n2c(=O)ccc3cnc4ccc(-c5ccc(NS(C)(=O)=O)cc5)cc4c32)ccc1C`, the % of control in experiment [4] (at 1 µM) amounted to 92%; in experiment [4] (at 10 µM) it was 95%.

In turn, `CNC(=O)Nc1ccc(-c2nc(N3CC4CCC(C3)O4)c3cnn(C4CCC5(CC4)OCCO5)c3n2)cc1` gave a % of control in experiment [5] of 54%. In experiment [6], `COc1cc(N(C)c2ccnc3ccc(C(F)(F)F)cc23)cc(OC)c1OC` came in with a % binding of 94%.
